The values below come from patent US4954520A, “1,3-dioxolane derivatives useful in the treatment of inflammation” (G. D. Searle & Co., priority 1989, dated 1990).

In general, inhibition refers to the share of the control response that was lost under treatment. Lower therefore signals little suppression. As usually defined, the IC50 is the concentration at which inhibition is half-maximal. The low end stands for greater potency, the high end for weaker potency.

The subject of this experiment is LTB4 production in HL-60 cells. Put plainly: A23187-Induced LTB4 Production in Human Promyelocytic Leukemia HL-60 Cells (HL-60 Cell Assay). It is filed as cell-based. Conditions: for inhibition at 100 µM: 10^-4 M; for inhibition at 10 µM: 10^-5 M; for IC50: A23187-stimulated differentiated HL-60 cells, 10 minutes preincubation at 37° C. From the text:
A23187-Induced LTB4 Production in Human Promyelocytic Leukemia HL-60 Cells.
Calcium ionophore A23187 was obtained from Calbiochem (La Jolla, CA). Trans-stilbene oxide was obtained from Sigma (St. Louis, MO). Hanks' balanced salt solution (HBSS) (10X concentrate), 1 M Hepes, and Dulbecco's modified Eagle medium were obtained from GIBCO Laboratories (Grand Island, NY). Fetal bovine serum was obtained from HyClone Laboratories (Logan, UT) The LTB4 and PGE2 radioimmunoassay antibodies were purchased from Amersham International plc (Amersham, UK) and NEN Research Products (N. Billerica, MA), respectively. Reagents for assay of lactate dehydrogenase (LDH) activity were purchased from Beckman (Carlsbad, CA).
Preparation of HL 60 Cells:
HL-60 cells were cultured in Dulbecco's modified Eagle medium (supplementedwith 20% fetal bovine serum, 20 mM Hepes, 100 U/ml penicillin and 100 mcg/ml streptomycin) and maintained at 37° C. in a humidified atmosphere of 5% CO2 in air. Cells from exponentially growing cultures were seeded at 3×10^5 cells/ml and induced to differentiate into granulocyte with 0.8% (v/v) N,N dimethylformamide for 4 days (1,2). Prior to assay, differentiated HL-60 cells were washed once with Hanks' balanced salt solution containing 0.35 mg/ml sodium bicarbonate and 10 mM Hepes, pH 7.3 (HBSS) and resuspended in HBSS at a concentration of 3×10^6 cells/ml.
DMSO or test compounds as 100× concentrates in DMSO were added in duplicate to 1.0 ml HL-60 cell suspensions (3×10^6 cells) and preincubated at 37° C. for 10 minutes in a shaking water bath. After an additional 5 minute incubation with calcium ionophore A23187 (10 mcl @ 5×10^-4 M in DMSO), the cells were pelleted at 12,800×g for 15 seconds and the supernatant removed and stored at […] for quantification of LTB4 or PGE2 via radioimmunoassay and LDH activity.
LTB4 and PGE2 data were expressed as percent inhibition of A23187-stimulated controls. For IC50 determinations, the 4 parameter logistic model was used where y is the percent inhibition response and×is the log10 concentration of the inhibitor: [formula] Nonlinear regression was performed using the SAS (3) procedure NLIN to obtain least squares estimates of the four parameters in the above equation: y.infin. (maximum), Y0 (minimum), a (log10 IC50) and b (slope factor). Increases in mean LDH levels for A23187-stimulated cells in the presence of test compound were tested for significance using a one tailed two sample Student's t-test.

SMILES strings stand for the structures. Counter-ions that a name gives are not always drawn.

`CCCCCCC/C=C/C=C/C1OCC(CCCC(=O)O)O1` (racemic) [Example 8B, (±) 2-Undeca-1E,3E-dienyl-1,3-dioxolane-4-butanoic acid, lithium salt] returned an inhibition at 100 µM (A23187-stimulated HL-60 cells) of 84%.
With `CCCCCCCCCC/C=C/C=C/C1OCC(CCCC(=O)O)O1` (racemic) [Example 5B (Racemic Mixture), 2-Tetradeca-1E,3E-dienyl-1,3-dixolane-4-butanoic acid, lithium salt], the IC50 is 6.8 µM. For the setting “A23187-stimulated HL-60 cells”, this compound gave an inhibition at 100 µM of 96% and an inhibition at 10 µM of 80%.
`CCCCCCCCCC/C=C/C=C/C1OCC(c2cccc(C(=O)O)c2)O1` (racemic) [Example 7B (Racemic Mixture), 3-(2-Tetradeca-1E,3E-dienyl-1,3-dioxolan-4-yl)benzoic acid, lithium salt] came in with an IC50 of 2.5 µM. For the setting “A23187-stimulated HL-60 cells”, at 100 µM the inhibition was 89% and the inhibition at 10 µM amounted to 91%. Moreover, testing at 1 µM (10^-6 M, A23187-stimulated HL-60 cells) gave an inhibition of 21%.
The compound `CCCCCCCCCC/C=C/C=C/C1OCC(CCCC(=O)O)O1` (single isomer, unassigned) [Example 5B (Single Diastereomer), 2-Tetradeca-1E,3E-dienyl-1,3-dixolane-4-butanoic acid, lithium salt] returned a concentration for half-maximal inhibition (IC50) of 7.2 µM. Under “A23187-stimulated HL-60 cells”, this compound gave an inhibition at 100 µM of 91% and an inhibition at 10 µM of 77%.
In the same order, the values of `CCCCCCCCCC/C=C/C=C/C1OCC(c2cccc(C(=O)[O-])c2)O1.[Li+]` (single isomer, unassigned) [Example 7B (Single diastereomer), 3-(2-Tetradeca-1E,3E-dienyl-1,3-dioxolan-4-yl)benzoic acid, lithium salt] are 3.6 µM, 92% and 92%.
